Measurements: patent US11629171B2, “Beta-hairpin peptidomimetics” (POLYPHOR AG, priority 2017, dated 2023)
In brackets after ≈: the same amount, converted by molar mass. Where a SMILES comes first, the peptide text is derived from it. Bridges are numbered along the chain shown (N, C = ends). Roman numbers before positions name the chains, in order. [ ]: non-standard residue; d: D form. The star is where a group is joined. Thr(ol) = C[C@@H](O)[C@H](N)CO; Tle = CC(C)(C)[C@H](N)C(=O)O; NMeV = CN[C@H](C(=O)O)C(C)C; Hiv = CC(C)[C@H](O)C(=O)O; Isovaleryl = CC(C)CC(=O)*; dDab = NCC[C@@H](N)C(=O)O; hSer = N[C@@H](CCO)C(=O)O; NHCH(CH2OH)2 = OCC(CO)N*; Dab = NCC[C@H](N)C(=O)O; Dap = NC[C@H](N)C(=O)O

What was measured:
Assay type in all cases: cell-based
[1] = system: Pseudomonas aeruginosa ATCC 27853; details: ATCC 27853
Procedure, shortened: (§1)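 Cation-adjusted MH-II broth, 0.002% polysorbate 80, inoculum near 10^6 CFU/mL. MIC read visually after 18-20 h, 35° C; units μg/mL.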

[2] = system: Enterobacter cloacae 848840; details: 848840
Procedure, shortened: as §1

[3] = system: Acinetobacter baumannii 872842; details: 872842
Procedure, shortened: as §1

[4] = system: Acinetobacter baumannii DSM 30008; details: DSM 30008
Procedure, shortened: as §1

[5] = system: Klebsiella pneumoniae SSI #3010; details: SSI #3010
Procedure, shortened: as §1

[6] = system: Klebsiella pneumoniae 968733; details: 968733
Procedure, shortened: as §1

[7] = system: Escherichia coli ATCC 25922; details: ATCC 25922
Procedure, shortened: as §1

Escherichia coli 926415 = details: 926415
Procedure, shortened: as §1

[8] = system: human red blood cells (hRBC); experiment: Hemolysis; details: red cells of human, 1 h, 200
Procedure, shortened: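 Washed fresh human RBC (20% v/v) incubated with peptide at 200 μg/mL for 1 h at 37° C with shaking. Supernatant OD540 measured after dilution, blank corrected; percent hemolysis = OD540 peptide / OD540 of 2% Triton X-100 lysis × 100, PBS with 10% water as 0%.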

SMILES | MIC [1] [µg/mL] | MIC [2] [µg/mL] | MIC [3] [µg/mL] | MIC [4] [µg/mL] | MIC [5] [µg/mL] | MIC [6] [µg/mL] | MIC [7] [µg/mL] | MIC (Escherichia coli 926415) [µg/mL] | Hemolysis at 200 μg/mL [8] [%]
CC(C)CC(=O)N[C@H]1CSSC[C@@H](C(=O)N[C@H](CO)[C@@H](C)O)NC(=O)[C@H](C(C)(C)C)NC(=O)[C@H](CO)NC(=O)[C@H](Cc2c[nH]c3ccccc23)NC(=O)[C@H]([C@@H](C)O)NC(=O)[C@@H](CCN)NC(=O)[C@H](CCC(=O)N[C@@H](CCN)C(=O)N[C@H](C(=O)N[C@@H](CCN)C(=O)N[C@H]2CCNC(=O)[C@H]([C@@H](C)O)NC(=O)[C@H](CCN)NC(=O)[C@H](CCN)NC(=O)[C@H](CC(C)C)NC(=O)[C@@H](CC(C)C)NC(=O)[C@H](CCN)NC2=O)[C@@H](C)O)NC(=O)[C@H](CN)NC(=O)[C@H](Cc2ccc(O)cc2)NC1=O [Example 4] (I: Isovaleryl-CY[Dap]E[dDab]TWS[Tle]C[Thr(ol)] / II: [Dab]T[Dab][Dab][Dab][dL]L[Dab][Dab]T; disulfide I:1-I:10; amide I:4-II:N; lactam II:4-II:C) | 0.125 (≈ 0.0527 µM) | 0.25 (≈ 0.105 µM) | 0.125 (≈ 0.0527 µM) | 0.0625 (≈ 0.0264 µM) | 0.125 (≈ 0.0527 µM) | 0.5 (≈ 0.211 µM) | 0.125 (≈ 0.0527 µM) | 0.25 (≈ 0.105 µM) | 1
CC(C)CC(=O)N[C@H]1CSSC[C@@H](C(=O)NC(CO)CO)NC(=O)[C@H](C(C)(C)C)NC(=O)[C@H](CO)NC(=O)[C@H](Cc2c[nH]c3ccccc23)NC(=O)[C@H]([C@@H](C)O)NC(=O)[C@@H](CCN)NC(=O)[C@H](CCC(=O)N[C@@H](CCN)C(=O)N[C@H](C(=O)N[C@@H](CCN)C(=O)N[C@H]2CCNC(=O)[C@H]([C@@H](C)O)NC(=O)[C@H](CCN)NC(=O)[C@H](CCN)NC(=O)[C@H](CC(C)C)NC(=O)[C@@H](CC(C)C)NC(=O)[C@H](CCN)NC2=O)[C@@H](C)O)NC(=O)[C@H](CN)NC(=O)[C@H](Cc2ccc(O)cc2)NC1=O [Example 5] (I: Isovaleryl-CY[Dap]E[dDab]TWS[Tle]C-{NHCH(CH2OH)2} / II: [Dab]T[Dab][Dab][Dab][dL]L[Dab][Dab]T; disulfide I:1-I:10; amide I:4-II:N; lactam II:4-II:C) | 0.125 (≈ 0.053 µM) | 0.125 (≈ 0.053 µM) | 0.125 (≈ 0.053 µM) | 0.0625 (≈ 0.0265 µM) | 0.125 (≈ 0.053 µM) | 0.25 (≈ 0.106 µM) | 0.0625 (≈ 0.0265 µM) | 0.125 (≈ 0.053 µM) | <1
CC(=O)N[C@H](C(=O)N[C@H]1CSSC[C@@H](C(N)=O)NC(=O)[C@H](C(C)C)NC(=O)[C@H](CCO)NC(=O)[C@H](Cc2c[nH]c3ccccc23)NC(=O)[C@H](CCO)NC(=O)[C@@H](CCN)NC(=O)[C@H](CCC(=O)N[C@@H](CCN)C(=O)N[C@H](C(=O)N[C@@H](CCN)C(=O)N[C@H]2CCNC(=O)[C@H]([C@@H](C)O)NC(=O)[C@H](CCN)NC(=O)[C@H](CCN)NC(=O)[C@H](CC(C)C)NC(=O)[C@@H](CC(C)C)NC(=O)[C@H](CCN)NC2=O)[C@@H](C)O)NC(=O)[C@H](CCN)NC(=O)[C@H](Cc2ccc(O)cc2)NC1=O)C(C)C [Example 6] (I: Ac-VCY[Dab]E[dDab][hSer]W[hSer]VC-NH2 / II: [Dab]T[Dab][Dab][Dab][dL]L[Dab][Dab]T; disulfide I:2-I:11; amide I:5-II:N; lactam II:4-II:C) | 0.125 (≈ 0.0531 µM) | 4 (≈ 1.7 µM) | 4 (≈ 1.7 µM) | 0.125 (≈ 0.0531 µM) | 0.25 (≈ 0.106 µM) | 0.5 (≈ 0.212 µM) | 0.125 (≈ 0.0531 µM) | 0.5 (≈ 0.212 µM) | 2
CC(C)C[C@@H]1NC(=O)[C@@H](CC(C)C)NC(=O)[C@H](CCN)NC(=O)[C@@H](NC(=O)[C@H](CCN)NC(=O)[C@@H](NC(=O)[C@H](CCN)NC(=O)CC[C@@H]2NC(=O)[C@H](CCN)NC(=O)[C@H](Cc3ccc(O)cc3)NC(=O)[C@@H](NC(=O)[C@@H](O)C(C)C)CSSC[C@@H](C(N)=O)NC(=O)[C@H](C(C)(C)C)NC(=O)[C@H](CO)NC(=O)[C@H](Cc3c[nH]c4ccccc34)NC(=O)[C@H](CCO)NC(=O)[C@@H](CCN)NC2=O)[C@@H](C)O)CCNC(=O)[C@H]([C@@H](C)O)NC(=O)[C@H](CCN)NC(=O)[C@H](CCN)NC1=O [Example 7] (I: H-[Hiv]CY[Dab]E[dDab][hSer]WS[Tle]C-NH2 / II: [Dab]T[Dab][Dab][Dab][dL]L[Dab][Dab]T; disulfide I:2-I:11; amide I:5-II:N; lactam II:4-II:C) | 0.125 (≈ 0.054 µM) | 2 (≈ 0.865 µM) | 1 (≈ 0.432 µM) | 0.0625 (≈ 0.027 µM) | 0.125 (≈ 0.054 µM) | 0.25 (≈ 0.108 µM) | 0.125 (≈ 0.054 µM) | 0.5 (≈ 0.216 µM) | <1
CC(=O)N[C@H](C(=O)N[C@H]1CSSC[C@@H](C(N)=O)NC(=O)[C@H](C(C)(C)C)NC(=O)[C@H](CO)NC(=O)[C@H](Cc2c[nH]c3ccccc23)NC(=O)[C@H](CO)NC(=O)[C@@H](CCN)NC(=O)[C@H](CCC(=O)N[C@@H](CCN)C(=O)N[C@H](C(=O)N[C@@H](CN)C(=O)N[C@H]2CCNC(=O)[C@H]([C@@H](C)O)NC(=O)[C@H](CCN)NC(=O)[C@H](CCN)NC(=O)[C@H](CC(C)C)NC(=O)[C@@H](CC(C)C)NC(=O)[C@H](CCN)NC2=O)[C@@H](C)O)NC(=O)[C@H](CN)NC(=O)[C@H](Cc2ccc(O)cc2)NC1=O)C(C)C [Example 8] (I: Ac-VCY[Dap]E[dDab]SWS[Tle]C-NH2 / II: [Dab]T[Dap][Dab][Dab][dL]L[Dab][Dab]T; disulfide I:2-I:11; amide I:5-II:N; lactam II:4-II:C) | 0.125 (≈ 0.0541 µM) | 0.25 (≈ 0.108 µM) | 0.0625 (≈ 0.027 µM) | 0.125 (≈ 0.0541 µM) | 0.125 (≈ 0.0541 µM) | 0.25 (≈ 0.108 µM) | 0.0625 (≈ 0.027 µM) | 0.5 (≈ 0.216 µM) | <1
CN[C@H](C(=O)N[C@H]1CSSC[C@@H](C(N)=O)NC(=O)[C@H](C(C)(C)C)NC(=O)[C@H](CO)NC(=O)[C@H](Cc2c[nH]c3ccccc23)NC(=O)[C@H](CCN)NC(=O)[C@@H](CCN)NC(=O)[C@H](CCC(=O)N[C@@H](CCN)C(=O)N[C@H](C(=O)N[C@@H](CN)C(=O)N[C@H]2CCNC(=O)[C@H]([C@@H](C)O)NC(=O)[C@H](CCN)NC(=O)[C@H](CCN)NC(=O)[C@H](CC(C)C)NC(=O)[C@@H](CC(C)C)NC(=O)[C@H](CCN)NC2=O)[C@@H](C)O)NC(=O)[C@H](CN)NC(=O)[C@H](Cc2ccc(O)cc2)NC1=O)C(C)C [Example 9] (I: H-[NMeV]CY[Dap]E[dDab][Dab]WS[Tle]C-NH2 / II: [Dab]T[Dap][Dab][Dab][dL]L[Dab][Dab]T; disulfide I:2-I:11; amide I:5-II:N; lactam II:4-II:C) | 0.125 (≈ 0.0544 µM) | 0.25 (≈ 0.109 µM) | 0.125 (≈ 0.0544 µM) | 0.125 (≈ 0.0544 µM) | 0.125 (≈ 0.0544 µM) | 0.5 (≈ 0.218 µM) | 0.125 (≈ 0.0544 µM) | 1 (≈ 0.435 µM) | <1
CC(=O)N[C@H](C(=O)N[C@H]1CSSC[C@@H](C(N)=O)NC(=O)[C@H](C(C)(C)C)NC(=O)[C@H](CO)NC(=O)[C@H](Cc2c[nH]c3ccccc23)NC(=O)[C@H](CCN)NC(=O)[C@@H](CCN)NC(=O)[C@H](CCC(=O)N[C@@H](CCN)C(=O)N[C@H](C(=O)N[C@@H](CN)C(=O)N[C@H]2CCNC(=O)[C@H]([C@@H](C)O)NC(=O)[C@H](CCN)NC(=O)[C@H](CCN)NC(=O)[C@H](CC(C)C)NC(=O)[C@@H](CC(C)C)NC(=O)[C@H](CCN)NC2=O)[C@@H](C)O)NC(=O)[C@H](CN)NC(=O)[C@H](Cc2ccc(O)cc2)NC1=O)C(C)C [Example 10] (I: Ac-VCY[Dap]E[dDab][Dab]WS[Tle]C-NH2 / II: [Dab]T[Dap][Dab][Dab][dL]L[Dab][Dab]T; disulfide I:2-I:11; amide I:5-II:N; lactam II:4-II:C) | 0.125 (≈ 0.0538 µM) | 0.25 (≈ 0.108 µM) | 0.125 (≈ 0.0538 µM) | 0.125 (≈ 0.0538 µM) | 0.25 (≈ 0.108 µM) | 0.5 (≈ 0.215 µM) | 0.25 (≈ 0.108 µM) | 8 (≈ 3.44 µM) | <1
CC(=O)N[C@H](C(=O)N[C@H](C(=O)N[C@@H](Cc1ccc(O)cc1)C(=O)N[C@H]1CSSC[C@@H](C(=O)N[C@H](C(=O)N[C@@H](CO)C(N)=O)C(C)C)NC(=O)[C@H](Cc2c[nH]c3ccccc23)NC(=O)[C@H](CCO)NC(=O)[C@@H](CCN)NC(=O)[C@H](CCC(=O)N[C@@H](CCN)C(=O)N[C@H](C(=O)N[C@@H](CCN)C(=O)N[C@H]2CCNC(=O)[C@H]([C@@H](C)O)NC(=O)[C@H](CCN)NC(=O)[C@H](CCN)NC(=O)[C@H](CC(C)C)NC(=O)[C@@H](CC(C)C)NC(=O)[C@H](CCN)NC2=O)[C@@H](C)O)NC1=O)[C@@H](C)O)C(C)C [Example 11] (I: Ac-VTYCE[dDab][hSer]WCVS-NH2 / II: [Dab]T[Dab][Dab][Dab][dL]L[Dab][Dab]T; disulfide I:4-I:9; amide I:5-II:N; lactam II:4-II:C) | 0.25 (≈ 0.107 µM) | 2 (≈ 0.854 µM) | 8 (≈ 3.42 µM) | 0.125 (≈ 0.0534 µM) | 0.125 (≈ 0.0534 µM) | 4 (≈ 1.71 µM) | 0.125 (≈ 0.0534 µM) | 4 (≈ 1.71 µM) | 1
